Results as given in US9539223B2, “Methods for treating bacterial infections” (Neoculi Pty Ltd., priority 2013, dated 2017).
≈ marks a conversion by molar mass, not a printed value. Where “and” joins values, the source holds several entries; their conditions need not be identical. Equal values may be shown once. Read-outs that look alike come from different tables or passages of the source.

How the values were obtained:
[1] = Precipitation of NCL812 in assay media; assay type: physicochemical
S. aureus ATCC 29213 = experiment: ATP release assay (CellTiter-Glo); assay type: cell-based, Staphylococcus aureus; settings: at the MIC ([…] μg/ml), 30 min exposure
Description: The CellTiter-Glo Luminescent Cell Viability Assay (Promega) was utilized to measure the leakage of ATP from bacteria. […] The negative control received 2% DMSO, which represented the final DMSO concentration in each assay. […] Results were expressed as ATP concentration released to the medium (μM).

S. aureus ATCC 49775 = experiment: Time-kill assays; assay type: cell-based, Staphylococcus aureus
Experimental: Bactericidal activity in macrodilution assays was identified as a 3-log10 decrease from the initial inoculum size. Bacteria were cultured overnight at 37° C. on SBA. Colonies were suspended in broth and the turbidity was adjusted to a 0.5 McFarland standard to obtain a bacterial suspension of ˜10^5-CFU/ml. Bacterial suspensions were incubated at 37° C. with shaking. Aliquots were removed at 0-, 1-, 2-, 4-, 8-, 12-, and 24-h after antimicrobial addition, diluted, plated onto SBA and incubated for 48-h at 37° C. for viable count determination. Turbidimetric growth curves for S. aureus were obtained for Microtiter plate assays by monitoring optical density changes using a Bio-Rad Benchmark Plus microplate spectrophotometer at 600 nm. Optical densities were measured at 0-, 1-, 2-, 4-, 8-, 12, and 24-h after antimicrobial addition.

S. pneumoniae = experiment: MBC, pneumococcal isolates; assay type: cell-based, Streptococcus pneumoniae; settings: isolate WCH16
Experimental: [Micro-broth dilutions and 96-well trays are prepared by the following method: 90 μL of 4% LHB: CAMHB is aliquotted into all wells using a multichannel pipette. 90 μl of working antimicrobial stocks were no serial diluted down the tray by a 1:2 dilution. Negative broth controls and dilution control were taken into account when planning the set up of a 96-well tray.] 10 μL of bacterial suspension was then added to the appropriate wells in the 96 well tray. Appropriate positive (no antimicrobial), negative (no antimicrobial or bacteria) and negative dilution (a serial dilution control of antimicrobial and broth) controls were included in each assay. […] The MBC was determined by a 99.95% inhibition of S. pneumoniae, taking into account the dilution factor. MICs and MBCs were determined in quadruplicate and the mode was taken as the representative value. The MIC50, MIC90 and MIC range and MBC50, MBC90 and MBC range were determined according to CLSI standards. The MIC50 and MIC90, or MBC50 and MBC90, are defined by the lowest concentrations which, when all the MICs and MBCs of the isolates are arranged from lowest to highest, inhibited the 50th and 90th percentile of the total amount of isolates, respectively.

S. pneumoniae strain D39 = experiment: MBC time kill studies (relative MBC at time points); assay type: cell-based, Streptococcus pneumoniae
Description: MBC kill kinetics assays involved the preparation of three 96-well microtitre trays.

[2] = test system: Staphylococcus pseudintermedius; experiment: MIC testing (CLSI), S. pseudintermedius isolates; assay type: cell-based
[3] = test system: E. coli ATCC 25922 spheroplasts; experiment: Activity against spheroplasts (colony forming units over 24 hours); assay type: cell-based, Escherichia coli
Experimental: E. coli ATCC 25922 was grown overnight on agar at 37° C. Two colonies from the overnight incubation were used to inoculate ˜20 ml of cation adjusted mueller hinton broth. Inoculated broth was incubated for 18 hours at 37° C. […] Formation of spheroplasts was checked using a phase contrast microscope.
Fifty microliters of DMSO only was added to the control test tube. Spheroplasts were incubated for 24 hours with 20 μl samples taken at 0, 2, 4, 6, 8 and 24 hours. Twenty microliter samples were serially diluted 1:10 and 10 ul samples of appropriate dilutions were spotted in triplicate onto brain heart infusion agar. Brain heart infusion agar was incubated at 37° C. for 48 hours and colonies were counted at 24 and 48 hours to determine the number of colony forming units.

[4] = test system: Staphylococcus spp. Strain MK1; experiment: Checkerboard synergy study, Staphylococcus spp. MK1; assay type: cell-based
Experimental: Firstly, the MIC of each antibiotic alone was determined in accordance to CLSI standard guidelines.
According to the checkerboard guidelines, Synergy (S) was defined as an FICI<0.5. No effect (NE) was defined as 0.5<FICI<4. Antagonism (A) was defined as a 4<FICI.

VRE isolates = experiment: MBC test (CLSI), VRE isolates; assay type: cell-based, Enterococcus spp.; parameters: key: M = many bacteria growing on the plate (too many to count)
Experimental: There was an obvious reduction in the number of bacteria with increasing concentration, but growth was present compared with no growth for S. aureus. […] Each MBC test was performed in duplicate.

S. aureus KC01 = experiment: Kill kinetics assay, S. aureus KC01; assay type: cell-based, Staphylococcus aureus
Experimental: S. aureus KC01 and E. faecalis USA01, not determined to be MRSA or VRE, respectively, were grown overnight on Columbia SBA at 37° C. A few colonies of bacteria were then suspended in CAMHB (cation-adjusted Mueller Hinton broth) and adjusted to OD600 of 0.08 to 0.10. The bacterial suspension was diluted 1:10. […] The tubes were incubated at 37° C., with constant shaking. In order to determine the number of viable bacteria present at various time points, a 100 μL aliquot was removed from each tube and diluted. Then, 100 μL of each dilution were spread onto colony count agar, in duplicate, and incubated for 48 h at 37° C. After 24 h the numbers of colonies present on each plate were counted and therefore the number of viable bacteria present in the original suspension enumerated. Plates were re-checked after 48 hours.

[5] = cited from earlier work

In the case of `N=C(N/N=C/c1ccc(Cl)cc1)N/N=C/c1ccc(Cl)cc1` [NCL812, 1,2-bis[(E)-(4-chlorophenyl)methylideneamino]guanidine], the “Precipitation of NCL812 observed at” value ([1]; MIC plates in Mueller Hinton II Broth without inoculum) is reported as at least 8 µg/mL, the precipitation observed at ([1]; Mueller Hinton broth II (DNA and RNA synthesis assays), MIC […] μg/ml) is reported as 4 to 8 fold the MIC and the “maximal release of ATP” value (S. aureus ATCC 29213) is reported as 0.33 µM. For the same molecule, the “growth in microdilution assay” value (S. aureus ATCC 49775; 1× and 4× the MIC, up to 24-h) was “no visible bacterial growth”, the remained bactericidal until (S. aureus ATCC 49775; 10-ml macrodilution, 1× and 4× the MIC, after antimicrobial addition) was 8 to 12 h and the “bacterial regrowth observed at” value (S. aureus ATCC 49775; after antimicrobial addition) was 12 h. For the same molecule, the “susceptibility of test bacteria after time-kill exposure” value (S. aureus ATCC 49775; following harvesting, washing and MIC testing) was “remained susceptible”, the MBC (S. pneumoniae) was “autolysis” and the “consistent bactericidal effect elicited after” value (S. pneumoniae strain D39; from initial exposure, relative MBC over 48 hr) was 6 h. For the same molecule, the “decrease in MBC” value (S. pneumoniae strain D39; within 5 hrs) was about 3 fold, the MIC50 ([2]; Staphylococcus pseudintermedius, 23 S. pseudintermedius isolates) was 2 µg/mL (≈ 5.98 µM) and the “susceptibility based on MICs” value ([2]; all 23 isolates (MSSP and MRSP)) was “susceptible”. For the same molecule, the “concentration with significant decrease in colony forming units over time” value [3] was at least 32 µg/mL, the MIC ([4]; read-out: NCL812 MIC Alone, Staphylococcus spp. Strain MK1) was 2 µg/mL and the “NCL812 MIC With Antibiotic” value ([4]; with Penicillin G) was 2 µg/mL. For the same molecule, the “NCL812 MIC With Antibiotic” value ([4]; with Sulfamethoxazole) was 1 µg/mL and 2 µg/mL, the “MBC test: bacteria growing after 24 hours per ml of sample” value (shortened to “MBC test … per ml of sample”) (VRE isolates; VRE 12c, 64 μg/ml) was “M” and the “MBC test … per ml of sample” value (VRE isolates; VRE 12c, […]) was “M”. For the same molecule, the “MBC test … per ml of sample” value (VRE isolates; VRE 14t, […]) was “M”, the “MBC test … per ml of sample” value (VRE isolates; VRE 16c(dc), 64 μg/ml) was “M” and the “MBC test … per ml of sample” value (VRE isolates; VRE 16c(dc), […]) was “M”. For the same molecule, the “MBC test … per ml of sample” value (VRE isolates; VRE 16c, 64 μg/ml) was “M”, the “MBC test … per ml of sample” value (VRE isolates; VRE 16c, […]) was “M” and the “MBC test … per ml of sample” value (VRE isolates; VRE 19t, […]) was “M”. For the same molecule, the “MBC test … per ml of sample” value (VRE isolates; VRE 23c, 64 μg/ml) was “M”, the “MBC test … per ml of sample” value (VRE isolates; VRE 23c, […]) was “M” and the “MBC test … per ml of sample” value (VRE isolates; VRE 25c, 64 μg/ml) was “M”. For the same molecule, the “MBC test … per ml of sample” value (VRE isolates; VRE 25c, […]) was “M”, the “MBC test … per ml of sample” value (VRE isolates; VRE 26c(dc), 64 μg/ml) was “M” and the “MBC test … per ml of sample” value (VRE isolates; VRE 26c(dc), […]) was “M”. For the same molecule, the “reduction in bacterial numbers from initial numbers” value (S. aureus KC01; 2 h time point) was at least 2.5 log10, the “reduction in bacterial numbers in comparison to the control” value (S. aureus KC01; 2 h time point) was over 3 log10 and the “reduction in bacterial numbers” value (S. aureus KC01; 6 h incubation) was at least 2 log10. For the same molecule, the “numbers of bacteria compared to the control” value (S. aureus KC01; after 24 h) was “not significantly different to the control”, the solubility ([5]; PBS) was “precipitation” and the solubility ([5]; water containing 4% DMSO, following initial dilution in 100% DMSO) was “complete solubility”.
